Measured values: the NIST ThermoML archive (doi:10.1021/je060271a)
Numbers after ± are expanded uncertainties.

Details: 283.15 K, Liquid, Vibrating tube method

CCCCCC(=O)OCC(COC(=O)CCCCC)(COC(=O)CCCCC)COC(=O)CCCCC [pentaerythritol tetrahexanoate]
mass density (8052.3 kPa): 1008.8 ± 1.2 kg/m3 | mass density (8065.9 kPa): 1008.8 ± 1.2 kg/m3 | mass density (8080.1 kPa): 1008.9 ± 1.2 kg/m3 | mass density (8094.4 kPa): 1008.8 ± 1.2 kg/m3 | mass density (8110.8 kPa): 1008.9 ± 1.2 kg/m3 | mass density (8125.1 kPa): 1008.8 ± 1.2 kg/m3 | mass density (8139.2 kPa): 1008.8 ± 1.2 kg/m3 | mass density (8153.4 kPa): 1008.9 ± 1.2 kg/m3 | mass density (8167.7 kPa): 1008.8 ± 1.2 kg/m3 | mass density (8184.9 kPa): 1008.9 ± 1.2 kg/m3 | mass density (8199.1 kPa): 1008.8 ± 1.2 kg/m3 | mass density (8213.4 kPa): 1008.9 ± 1.2 kg/m3 | mass density (8230.8 kPa): 1008.9 ± 1.2 kg/m3 | mass density (8245.5 kPa): 1008.9 ± 1.2 kg/m3 | mass density (8259.8 kPa): 1008.8 ± 1.2 kg/m3 | mass density (8274.5 kPa): 1009 ± 1.2 kg/m3 | mass density (8291.9 kPa): 1008.9 ± 1.2 kg/m3 | mass density (8306.6 kPa): 1009 ± 1.2 kg/m3 | mass density (8320.7 kPa): 1009 ± 1.2 kg/m3 | mass density (8335.5 kPa): 1009.1 ± 1.2 kg/m3 | mass density (8385.6 kPa): 1009 ± 1.2 kg/m3 | mass density (8400.7 kPa): 1009 ± 1.2 kg/m3 | mass density (8415.4 kPa): 1009.1 ± 1.2 kg/m3 | mass density (8430.1 kPa): 1009 ± 1.2 kg/m3 | mass density (8447.5 kPa): 1009 ± 1.2 kg/m3 | mass density (8463 kPa): 1009 ± 1.2 kg/m3 | mass density (8478 kPa): 1009.1 ± 1.2 kg/m3 | mass density (8496.3 kPa): 1009.1 ± 1.2 kg/m3 | mass density (8511.3 kPa): 1009 ± 1.2 kg/m3 | mass density (8529.1 kPa): 1009.1 ± 1.2 kg/m3 | mass density (8544.6 kPa): 1009.1 ± 1.2 kg/m3 | mass density (8560.6 kPa): 1009.1 ± 1.2 kg/m3 | mass density (8576.2 kPa): 1009.1 ± 1.2 kg/m3 | mass density (8594.8 kPa): 1009.1 ± 1.2 kg/m3 | mass density (8609.8 kPa): 1009.2 ± 1.2 kg/m3 | mass density (8625.5 kPa): 1009.1 ± 1.2 kg/m3 | mass density (8644.3 kPa): 1009.3 ± 1.2 kg/m3 | mass density (8659.6 kPa): 1009.2 ± 1.2 kg/m3 | mass density (8678.4 kPa): 1009.2 ± 1.2 kg/m3 | mass density (8694.4 kPa): 1009.1 ± 1.2 kg/m3 | mass density (8710.5 kPa): 1009.1 ± 1.2 kg/m3 | mass density (8729.5 kPa): 1009.2 ± 1.2 kg/m3 | mass density (8745.1 kPa): 1009.1 ± 1.2 kg/m3 | mass density (8761.5 kPa): 1009.1 ± 1.2 kg/m3 | mass density (8778.1 kPa): 1009.3 ± 1.2 kg/m3 | mass density (8797.7 kPa): 1009.2 ± 1.2 kg/m3 | mass density (8813.6 kPa): 1009.3 ± 1.2 kg/m3 | mass density (8833.4 kPa): 1009.1 ± 1.2 kg/m3 | mass density (8849.8 kPa): 1009.3 ± 1.2 kg/m3 | mass density (8865.8 kPa): 1009.3 ± 1.2 kg/m3 | mass density (8882.4 kPa): 1009.2 ± 1.2 kg/m3 | mass density (8902.4 kPa): 1009.2 ± 1.2 kg/m3 | mass density (8919.1 kPa): 1009.3 ± 1.2 kg/m3 | mass density (8935.3 kPa): 1009.3 ± 1.2 kg/m3 | mass density (8955.5 kPa): 1009.4 ± 1.2 kg/m3 | mass density (8972.2 kPa): 1009.2 ± 1.2 kg/m3 | mass density (8992.6 kPa): 1009.4 ± 1.2 kg/m3 | mass density (9009.6 kPa): 1009.3 ± 1.2 kg/m3 | mass density (9026.7 kPa): 1009.4 ± 1.2 kg/m3 | mass density (9043.4 kPa): 1009.5 ± 1.2 kg/m3 | mass density (9063.8 kPa): 1009.4 ± 1.2 kg/m3 | mass density (9081 kPa): 1009.3 ± 1.2 kg/m3 | mass density (9098.4 kPa): 1009.5 ± 1.2 kg/m3 | mass density (9118.9 kPa): 1009.4 ± 1.2 kg/m3 | mass density (9136.1 kPa): 1009.4 ± 1.2 kg/m3 | mass density (9156.6 kPa): 1009.4 ± 1.2 kg/m3 | mass density (9173.7 kPa): 1009.4 ± 1.2 kg/m3 | mass density (9191.1 kPa): 1009.5 ± 1.2 kg/m3 | mass density (9212.2 kPa): 1009.5 ± 1.2 kg/m3 | mass density (9230.4 kPa): 1009.5 ± 1.2 kg/m3 | mass density (9249.2 kPa): 1009.5 ± 1.2 kg/m3 | mass density (9266.9 kPa): 1009.5 ± 1.2 kg/m3
